# Source: article PMC6416464 (Drug Metabolism Letters, 2018)
# Like-named read-outs stand apart in the source and are kept apart here.
# Key:
# CYP2C19 = CYP2C19 (Homo sapiens, UniProt P33261); assay: CYP inhibition in human liver microsomes, CYP2C19; settings: inhibitor 10 µM, HLM, NI: No Inhibitin
# [1] = Metabolic stability, incubation with human liver microsomes; settings: 1 µM test compound, 0.5 mg/mL protein
# rCYP2C9 = rCYP2C9 (Homo sapiens, UniProt P11712); assay: Metabolic stability / reaction phenotyping with recombinant human CYP2C9; settings: for % Metabolized at 30 min Incubation with Human Liver Fractions/Enzymes rCYP2C9: 1 µM test compound, 100 pmol/mL
# Chain of rCYP2C9 (P11712 whole entry): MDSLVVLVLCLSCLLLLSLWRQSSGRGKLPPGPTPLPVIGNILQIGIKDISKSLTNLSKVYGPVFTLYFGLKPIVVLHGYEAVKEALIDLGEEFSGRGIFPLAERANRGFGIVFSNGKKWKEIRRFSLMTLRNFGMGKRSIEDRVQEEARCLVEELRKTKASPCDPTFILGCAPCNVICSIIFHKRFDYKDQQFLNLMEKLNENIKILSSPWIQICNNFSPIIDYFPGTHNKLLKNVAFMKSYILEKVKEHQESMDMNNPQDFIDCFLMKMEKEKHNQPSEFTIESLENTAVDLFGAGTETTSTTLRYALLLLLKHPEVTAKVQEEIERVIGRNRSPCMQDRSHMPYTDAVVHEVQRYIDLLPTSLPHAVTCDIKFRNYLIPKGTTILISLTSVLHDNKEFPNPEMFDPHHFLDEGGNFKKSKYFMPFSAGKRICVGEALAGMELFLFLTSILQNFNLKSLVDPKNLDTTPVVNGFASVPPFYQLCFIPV
# CYP3A4 [2] = target: T1, CYP3A4 (Homo sapiens, UniProt P08684); assay: in vitro; settings: microsomes, pH 7.4, % Inhibition of Control Activity CYP3A4 (substrate, testosterone)
# T1 sequence (P08684 2-503): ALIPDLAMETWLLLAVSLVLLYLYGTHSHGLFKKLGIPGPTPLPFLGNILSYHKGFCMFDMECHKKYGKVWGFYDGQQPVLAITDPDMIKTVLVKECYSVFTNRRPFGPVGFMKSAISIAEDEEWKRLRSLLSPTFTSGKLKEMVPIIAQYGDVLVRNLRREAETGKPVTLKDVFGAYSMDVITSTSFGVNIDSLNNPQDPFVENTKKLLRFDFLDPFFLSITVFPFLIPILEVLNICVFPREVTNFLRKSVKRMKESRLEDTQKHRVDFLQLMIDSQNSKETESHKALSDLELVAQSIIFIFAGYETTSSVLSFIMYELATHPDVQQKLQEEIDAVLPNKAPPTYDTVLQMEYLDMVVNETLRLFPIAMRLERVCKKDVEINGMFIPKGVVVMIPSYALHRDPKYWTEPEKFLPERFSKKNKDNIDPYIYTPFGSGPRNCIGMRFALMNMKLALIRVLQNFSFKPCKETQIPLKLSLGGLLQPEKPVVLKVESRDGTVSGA
# rCYP2D6 = rCYP2D6 (Homo sapiens, UniProt P10635); assay: Metabolic stability / reaction phenotyping with recombinant human CYP2D6; settings: for % Metabolized at 30 min Incubation with Human Liver Fractions/Enzymes rCYP2D6: 1 µM test compound, 100 pmol/mL
# Chain of rCYP2D6 (P10635 whole entry): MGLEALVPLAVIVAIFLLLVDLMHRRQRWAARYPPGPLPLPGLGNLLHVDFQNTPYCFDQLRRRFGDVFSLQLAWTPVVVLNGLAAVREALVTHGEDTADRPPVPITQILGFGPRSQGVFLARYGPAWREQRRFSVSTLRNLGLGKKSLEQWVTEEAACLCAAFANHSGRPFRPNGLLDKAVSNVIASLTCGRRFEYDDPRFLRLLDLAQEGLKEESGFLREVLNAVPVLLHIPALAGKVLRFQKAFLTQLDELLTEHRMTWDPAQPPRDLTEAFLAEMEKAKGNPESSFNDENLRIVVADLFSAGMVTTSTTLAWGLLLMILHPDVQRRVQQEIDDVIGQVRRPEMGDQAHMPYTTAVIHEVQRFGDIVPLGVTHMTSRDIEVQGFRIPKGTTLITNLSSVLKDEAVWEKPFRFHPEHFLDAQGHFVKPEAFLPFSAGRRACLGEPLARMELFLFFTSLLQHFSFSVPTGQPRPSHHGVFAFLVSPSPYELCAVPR
# rCYP2C8 = target: T2, rCYP2C8 (Homo sapiens, UniProt P10632); assay: Metabolic stability / reaction phenotyping with recombinant human CYP2C8; settings: for % Metabolized at 30 min Incubation with Human Liver Fractions/Enzymes rCYP2C8: 1 µM test compound, 100 pmol/mL
# T2 sequence (P10632 1-490): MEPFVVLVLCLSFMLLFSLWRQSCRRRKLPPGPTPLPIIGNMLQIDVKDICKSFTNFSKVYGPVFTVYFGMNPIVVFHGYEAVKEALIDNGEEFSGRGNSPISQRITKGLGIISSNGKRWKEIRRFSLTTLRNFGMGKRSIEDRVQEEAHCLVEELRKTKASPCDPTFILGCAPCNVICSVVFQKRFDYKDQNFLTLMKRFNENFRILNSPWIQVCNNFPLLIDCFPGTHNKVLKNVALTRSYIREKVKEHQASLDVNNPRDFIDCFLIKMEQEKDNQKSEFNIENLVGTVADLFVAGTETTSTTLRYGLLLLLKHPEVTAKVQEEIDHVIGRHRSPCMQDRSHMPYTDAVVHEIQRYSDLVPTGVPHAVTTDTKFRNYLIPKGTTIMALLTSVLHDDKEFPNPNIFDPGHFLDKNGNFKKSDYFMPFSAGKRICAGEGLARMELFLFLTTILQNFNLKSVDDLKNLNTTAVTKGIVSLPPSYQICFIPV
# CYP2C9 = CYP2C9 (Homo sapiens, UniProt P11712); assay: CYP inhibition in human liver microsomes, CYP2C9; settings: for % Inhibition of Control Activity CYP2C9: NI: No Inhibitin
# Chain of CYP2C9 (P11712 whole entry): as the sequence (P11712 whole entry) above
# [3] = Metabolic stability, incubation with human liver cytosol; format: in vitro ADME; settings: 1 µM test compound, 1 mg/mL protein
# rCYP3A4 = rCYP3A4 (Homo sapiens, UniProt P08684)
# Chain of rCYP3A4 (P08684 whole entry): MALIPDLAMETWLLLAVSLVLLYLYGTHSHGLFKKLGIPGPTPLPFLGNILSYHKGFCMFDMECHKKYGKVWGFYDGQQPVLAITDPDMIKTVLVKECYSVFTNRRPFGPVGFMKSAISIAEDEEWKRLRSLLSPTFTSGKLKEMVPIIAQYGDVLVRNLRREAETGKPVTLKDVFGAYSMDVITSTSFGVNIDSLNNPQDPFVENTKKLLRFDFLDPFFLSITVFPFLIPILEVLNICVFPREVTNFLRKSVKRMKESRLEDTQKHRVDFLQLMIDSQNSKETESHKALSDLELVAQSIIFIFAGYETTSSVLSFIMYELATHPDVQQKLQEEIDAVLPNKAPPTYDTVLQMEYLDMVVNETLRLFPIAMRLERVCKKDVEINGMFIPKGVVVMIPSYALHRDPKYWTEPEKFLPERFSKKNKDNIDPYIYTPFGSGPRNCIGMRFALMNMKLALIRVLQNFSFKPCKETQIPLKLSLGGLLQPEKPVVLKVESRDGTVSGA
# CYP1A2 = target: T3, CYP1A2 (Homo sapiens, UniProt P05177); assay: CYP inhibition in human liver microsomes, CYP1A2; settings: inhibitor 10 µM, HLM, NI: No Inhibitin
# T3 sequence (P05177 1-516): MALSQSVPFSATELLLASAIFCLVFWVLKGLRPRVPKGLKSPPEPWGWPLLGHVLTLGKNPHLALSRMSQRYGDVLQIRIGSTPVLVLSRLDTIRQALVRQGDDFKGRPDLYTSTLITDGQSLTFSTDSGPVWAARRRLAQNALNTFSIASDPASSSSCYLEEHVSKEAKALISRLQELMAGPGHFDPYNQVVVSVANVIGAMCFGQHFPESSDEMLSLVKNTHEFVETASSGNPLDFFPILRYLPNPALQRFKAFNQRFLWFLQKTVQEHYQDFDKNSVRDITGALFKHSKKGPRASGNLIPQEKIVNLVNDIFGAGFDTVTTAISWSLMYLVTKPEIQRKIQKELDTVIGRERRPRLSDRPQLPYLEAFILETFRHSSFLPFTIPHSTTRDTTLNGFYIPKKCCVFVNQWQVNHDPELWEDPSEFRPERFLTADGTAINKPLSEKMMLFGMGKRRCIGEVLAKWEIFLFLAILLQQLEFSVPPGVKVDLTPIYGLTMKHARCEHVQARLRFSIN
# CYP3A4 [4] = target: T1, CYP3A4; assay: in vitro; settings: microsomes, pH 7.4
# CYP2C8 = target: T4, CYP2C8 (Homo sapiens, UniProt P10632); assay: CYP inhibition in human liver microsomes, CYP2C8; settings: for % Inhibition of Control Activity CYP2C8: NI: No Inhibitin
# T4 sequence (P10632 1-490): T2 sequence (P10632 1-490)
# rCYP2C19 = rCYP2C19 (Homo sapiens, UniProt P33261); assay: Metabolic stability / reaction phenotyping with recombinant human CYP2C19; settings: for % Metabolized at 30 min Incubation with Human Liver Fractions/Enzymes rCYP2C19: 1 µM test compound, 100 pmol/mL
# Chain of rCYP2C19 (P33261 whole entry): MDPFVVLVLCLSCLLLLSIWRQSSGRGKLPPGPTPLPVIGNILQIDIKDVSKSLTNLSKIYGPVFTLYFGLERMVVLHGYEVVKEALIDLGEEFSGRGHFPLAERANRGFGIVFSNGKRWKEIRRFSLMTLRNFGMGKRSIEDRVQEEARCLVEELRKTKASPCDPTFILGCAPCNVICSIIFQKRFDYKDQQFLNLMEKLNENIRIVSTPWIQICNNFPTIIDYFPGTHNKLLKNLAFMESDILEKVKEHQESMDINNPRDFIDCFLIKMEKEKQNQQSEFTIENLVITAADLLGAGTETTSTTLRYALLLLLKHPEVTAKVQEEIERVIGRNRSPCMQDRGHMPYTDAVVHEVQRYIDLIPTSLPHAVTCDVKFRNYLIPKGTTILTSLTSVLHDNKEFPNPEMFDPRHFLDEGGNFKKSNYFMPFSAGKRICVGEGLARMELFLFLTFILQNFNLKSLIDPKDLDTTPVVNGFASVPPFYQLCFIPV
# rCYP1A2 = target: T5, rCYP1A2 (Homo sapiens, UniProt P05177); assay: Metabolic stability / reaction phenotyping with recombinant human CYP1A2; settings: for % Metabolized at 30 min Incubation with Human Liver Fractions/Enzymes rCYP1A2: 1 µM test compound, 100 pmol/mL
# T5 sequence (P05177 1-516): T3 sequence (P05177 1-516)
# CYP3A4 [5] = target: T1, CYP3A4; settings: microsomes
# [6] = cited from earlier work
# [7] = human, recombinant human CYP2C9, 1 µM, pH 7.4
# [8] = human, recombinant human CYP2D6, 1 µM, pH 7.4
# [9] = human, recombinant human CYP2C8, 1 µM, pH 7.4
# [10] = human, recombinant enzyme, pH 7.4
# [11] = human, human liver microsomes, pH 7.4, probe paclitaxel
# [12] = human, recombinant human CYP1A2, 1 µM, pH 7.4
# Chain of CYP2C19 (P33261 whole entry): as above
molecule,measurement,setting,value
"CC(C)(O)c1ccccc1CC[C@@H](SCC1(CC(=O)O)CC1)c1cccc(/C=C/c2ccc3ccc(Cl)cc3n2)c1 [Montelukast, montelukast, reference compound]",% Inhibition of Control Activity CYP2C19,CYP2C19; 10 µM,22.70%
same,% Metabolized at 30 min Incubation with Human Liver Fractions/Enzymes HLM,[1],25.71%
same,% Metabolized at 30 min Incubation with Human Liver Fractions/Enzymes rCYP2C9,rCYP2C9,10.85%
same,"% Contribution of CYP Enzymes (fmCYP) in Metabolism, CYP2C9",rCYP2C9; [7],9.08%
same,"Predicted Microsomal Clint, CYP2C9",rCYP2C9; [7],3.675 µL/min/mg Protein
same,"rCYP Clint, CYP2C9",rCYP2C9; [7],0.038 µL/min/pmol
same,inhibition at 2 µM,CYP3A4 [2],0.79%
same,inhibition at 10 µM,CYP3A4 [2],11.2%
same,% Metabolized at 30 min Incubation with Human Liver Fractions/Enzymes rCYP2D6,rCYP2D6,7.46%
same,"% Contribution of CYP Enzymes (fmCYP) in Metabolism, CYP2D6",rCYP2D6; [8],0.64%
same,"Predicted Microsomal Clint, CYP2D6",rCYP2D6; [8],0.258 µL/min/mg Protein
same,"rCYP Clint, CYP2D6",rCYP2D6; [8],0.026 µL/min/pmol
same,% Metabolized at 30 min Incubation with Human Liver Fractions/Enzymes rCYP2C8,rCYP2C8,52.29%
same,"% Contribution of CYP Enzymes (fmCYP) in Metabolism, CYP2C8",rCYP2C8; [9],39.00%
same,"Predicted Microsomal Clint, CYP2C8",rCYP2C8; [9],15.789 µL/min/mg Protein
same,"rCYP Clint, CYP2C8",rCYP2C8; [9],0.247 µL/min/pmol
same,IC50,CYP2C9,1.34 µM
same,% Metabolized at 30 min Incubation with Human Liver Fractions/Enzymes Cytosol,[3],10.13%
same,"Predicted Microsomal Clint, CYP3A4","rCYP3A4; human, pH 7.4",19.054 µL/min/mg Protein
same,% Metabolized at 30 min Incubation with Human Liver Fractions/Enzymes rCYP3A4,"rCYP3A4; human, recombinant enzyme, 0.5 h, pH 7.4",40.25%
same,"% Contribution of CYP Enzymes (fmCYP) in Metabolism, CYP3A4",rCYP3A4; [10],47.07%
same,"rCYP Clint, CYP3A4",rCYP3A4; [10],0.172 µL/min/pmol
same,% Inhibition of Control Activity CYP1A2,CYP1A2; 10 µM,24.96%
same,inhibition at 2 µM,CYP3A4 [4],20%
same,inhibition at 10 µM,CYP3A4 [4],48%
same,inhibition at 2 µM,CYP2C8; [11],93.7%
same,inhibition at 10 µM,CYP2C8; [11],97.3%
same,% Metabolized at 30 min Incubation with Human Liver Fractions/Enzymes rCYP2C19,rCYP2C19,0.00%
same,% Metabolized at 30 min Incubation with Human Liver Fractions/Enzymes rCYP1A2,rCYP1A2,9.37%
same,"% Contribution of CYP Enzymes (fmCYP) in Metabolism, CYP1A2",rCYP1A2; [12],4.21%
same,"Predicted Microsomal Clint, CYP1A2",rCYP1A2; [12],1.705 µL/min/mg Protein
same,"rCYP Clint, CYP1A2",rCYP1A2; [12],0.033 µL/min/pmol
triclabendazole sulfone,% Inhibition of Control Activity CYP2C19,CYP2C19,5.05%
same,% Metabolized at 30 min Incubation with Human Liver Fractions/Enzymes HLM,[1],52.20%
same,"Predicted Microsomal Clint, CYP2C9",rCYP2C9,130.447 µL/min/mg Protein
same,% Metabolized at 30 min Incubation with Human Liver Fractions/Enzymes rCYP2C9,rCYP2C9,98.31%
same,"rCYP Clint, CYP2C9","rCYP2C9; human, recombinant enzyme",1.359 µL/min/pmol
same,"% Contribution of CYP Enzymes (fmCYP) in Metabolism, CYP2C9",rCYP2C9; recombinant enzyme,97.11%
same,% Metabolized at 30 min Incubation with Human Liver Fractions/Enzymes rCYP2D6,rCYP2D6,0.00%
same,% Metabolized at 30 min Incubation with Human Liver Fractions/Enzymes rCYP2C8,rCYP2C8,0.00%
same,% Inhibition of Control Activity CYP2C9,"CYP2C9; inhibitor 2 µM, HLM",78.78%
same,% Inhibition of Control Activity CYP2C9,"CYP2C9; inhibitor 10 µM, HLM",96.15%
same,IC50,"CYP2C9; read-out: IC50 CYP 2C9, HLM",0.69 µM
same,% Metabolized at 30 min Incubation with Human Liver Fractions/Enzymes Cytosol,[3],0.00%
same,"Predicted Microsomal Clint, CYP3A4",rCYP3A4,3.591 µL/min/mg Protein
same,% Metabolized at 30 min Incubation with Human Liver Fractions/Enzymes rCYP3A4,"rCYP3A4; 1 µM test compound, 100 pmol/mL, 30 min",9.25%
same,"rCYP Clint, CYP3A4","rCYP3A4; human, recombinant enzyme",0.032 µL/min/pmol
same,"% Contribution of CYP Enzymes (fmCYP) in Metabolism, CYP3A4",rCYP3A4; recombinant enzyme,2.67%
same,"% Inhibition of Control Activity CYP3A4 (substrate, testosterone)",CYP3A4 [5]; 2 µM,4.09%
same,"% Inhibition of Control Activity CYP3A4 (substrate, testosterone)",CYP3A4 [5]; 10 µM,8.63%
same,Cmax,[6]; human patients at therapeutic doses of triclabendazole,2290 nM
same,half-life,[6]; humans,11 to 12 h
same,% Inhibition of Control Activity CYP1A2,CYP1A2,8.60%
same,% Inhibition of Control Activity CYP2C8,"CYP2C8; inhibitor 2 µM, HLM",65.36%
same,% Inhibition of Control Activity CYP2C8,"CYP2C8; inhibitor 10 µM, HLM",92.88%
same,IC50,"CYP2C8; read-out: IC50 CYP 2C8, HLM",1.05 µM
same,"Predicted Microsomal Clint, CYP2C19",rCYP2C19,0.228 µL/min/mg Protein
same,% Metabolized at 30 min Incubation with Human Liver Fractions/Enzymes rCYP2C19,rCYP2C19,3.53%
same,"rCYP Clint, CYP2C19","rCYP2C19; human, recombinant enzyme",0.012 µL/min/pmol
same,"% Contribution of CYP Enzymes (fmCYP) in Metabolism, CYP2C19",rCYP2C19; recombinant enzyme,0.17%
same,"Predicted Microsomal Clint, CYP1A2",rCYP1A2,0.069 µL/min/mg Protein
same,% Metabolized at 30 min Incubation with Human Liver Fractions/Enzymes rCYP1A2,rCYP1A2,0.40%
same,"rCYP Clint, CYP1A2","rCYP1A2; human, recombinant enzyme",0.001 µL/min/pmol
same,"% Contribution of CYP Enzymes (fmCYP) in Metabolism, CYP1A2",rCYP1A2; recombinant enzyme,0.05%
